# Assay results published in ChEMBL document CHEMBL1144597, “Synthesis and evaluation of aryl thioxothiazolidinone inhibitors of ADAMTS-5 (Aggrecanase-2)” (Bioorg Med Chem Lett, 2007).
# Molecular target: T1, A disintegrin and metalloproteinase with thrombospondin motifs 5 (Homo sapiens, UniProt Q9UNA0)
# T1 sequence (Q9UNA0 whole entry): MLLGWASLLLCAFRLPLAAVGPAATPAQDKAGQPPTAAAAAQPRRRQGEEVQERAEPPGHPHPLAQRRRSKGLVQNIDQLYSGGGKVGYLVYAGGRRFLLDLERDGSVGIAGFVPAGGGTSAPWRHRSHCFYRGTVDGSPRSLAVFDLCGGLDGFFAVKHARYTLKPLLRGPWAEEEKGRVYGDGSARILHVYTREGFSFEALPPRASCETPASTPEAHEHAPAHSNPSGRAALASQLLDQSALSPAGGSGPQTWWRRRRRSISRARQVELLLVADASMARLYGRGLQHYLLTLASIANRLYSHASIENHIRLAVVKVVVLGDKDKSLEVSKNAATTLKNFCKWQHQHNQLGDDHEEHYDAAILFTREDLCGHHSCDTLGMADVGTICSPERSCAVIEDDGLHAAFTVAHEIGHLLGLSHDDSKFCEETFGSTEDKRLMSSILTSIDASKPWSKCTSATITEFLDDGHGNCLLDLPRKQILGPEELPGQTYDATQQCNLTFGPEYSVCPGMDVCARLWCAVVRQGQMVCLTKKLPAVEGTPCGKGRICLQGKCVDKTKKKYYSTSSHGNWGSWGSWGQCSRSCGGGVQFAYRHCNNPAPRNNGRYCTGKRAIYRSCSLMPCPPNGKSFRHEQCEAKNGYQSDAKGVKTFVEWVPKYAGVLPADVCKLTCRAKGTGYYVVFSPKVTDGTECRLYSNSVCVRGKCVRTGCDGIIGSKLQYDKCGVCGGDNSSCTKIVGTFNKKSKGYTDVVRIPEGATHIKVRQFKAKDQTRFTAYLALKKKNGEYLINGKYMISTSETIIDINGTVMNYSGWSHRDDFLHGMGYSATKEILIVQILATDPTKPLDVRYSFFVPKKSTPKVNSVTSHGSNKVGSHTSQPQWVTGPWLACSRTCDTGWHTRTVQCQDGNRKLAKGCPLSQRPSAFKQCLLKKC
# Test: Inhibition of ADAMTS5
row,SMILES,IC50 [µM]
1,O=C1NC(=O)/C(=C\c2cccc(Oc3ccc(Cl)cc3)c2)S1,> 22
2,COc1ccc(Oc2cccc(/C=C3/SC(=S)NC3=O)c2)cc1,16.2
3,O=C1NC(=O)/C(=C\c2cccc(Oc3ccc(Cl)cc3)c2)N1,> 67
4,O=C1NC(=S)S/C1=C/c1cccc(Oc2ccc(C(F)(F)F)cc2)c1,5.3
5,O=C(O)C(c1ccccc1)N1C(=O)/C(=C\c2cccc(Oc3ccc(Cl)c(Cl)c3)c2)SC1=S (stereo unspecified),1.3
6,CC(C)[C@H](C(=O)O)N1C(=O)/C(=C\c2cccc(Oc3ccc(Cl)c(Cl)c3)c2)SC1=S,1.8
7,O=C(O)CN1C(=O)/C(=C\c2cccc(Oc3ccc(Cl)c(Cl)c3)c2)SC1=S,11.1
8,O=C1NC(=O)/C(=C\c2cccc(Oc3ccc(Cl)c(Cl)c3)c2)S1,10
9,O=C1NC(=S)S/C1=C/c1cccc(Oc2cc(Cl)cc(Cl)c2)c1,2.5
10,CC(C)(C)c1ccc(Oc2cccc(/C=C3/NC(=O)NC3=O)c2)cc1,> 67
11,CN1C(=O)/C(=C\c2ccc(OCc3ccccc3)c(OCc3ccccc3)c2)SC1=S,> 67
12,O=C1NC(=S)S/C1=C/c1cccc(Oc2ccc(Cl)cc2)c1,4.9
13,CC(C)(C)c1ccc(Oc2cccc(/C=C3/SC(=O)NC3=O)c2)cc1,6.8
14,O=C(O)[C@@H](Cc1ccccc1)N1C(=O)/C(=C\c2cccc(Oc3ccc(Cl)c(Cl)c3)c2)SC1=S,1.6
15,Cc1ccc(Oc2cccc(/C=C3/SC(=S)NC3=O)c2)cc1,14.8
16,O=C1NC(=O)/C(=C\c2cccc(Oc3cc(Cl)cc(Cl)c3)c2)N1,> 67
17,O=C1NC(=S)S/C1=C/c1cccc(Oc2ccc(Cl)c(Cl)c2)c1,3.2
18,O=C1NC(=O)/C(=C\c2cccc(Oc3cc(Cl)cc(Cl)c3)c2)S1,9.2
19,CC(C)(C)c1ccc(Oc2cccc(/C=C3/SC(=S)NC3=O)c2)cc1,1.7
20,CN1C(=O)NC(=O)/C1=C\c1cccc(Oc2ccc(Cl)cc2)c1,> 22

# More lines, now with the values ahead:
row,IC50 [µM],SMILES
1,1.8,O=C1NC(=S)S/C1=C/c1ccc(OCc2ccccc2)c(OCc2ccccc2)c1
2,5.3,O=C(O)CCN1C(=O)/C(=C\c2ccc(OCc3ccccc3)c(OCc3ccccc3)c2)SC1=S
3,> 67,O=C1/C(=C\c2ccc(OCc3ccccc3)c(OCc3ccccc3)c2)SC(=S)N1c1ccccc1
4,1.1,CC(C)[C@H](C(=O)O)N1C(=O)/C(=C\c2ccc(OCc3ccccc3)c(OCc3ccccc3)c2)SC1=S
5,> 22,O=C1NC(=S)S/C1=C/c1cccc(Oc2ccccc2)c1
6,6.7,O=C(O)CN1C(=O)/C(=C\c2ccc(OCc3ccccc3)c(OCc3ccccc3)c2)SC1=S
7,> 67,CCN1C(=O)/C(=C\c2ccc(OCc3ccccc3)c(OCc3ccccc3)c2)SC1=S
8,0.9,O=C(O)C(c1ccccc1)N1C(=O)/C(=C\c2ccc(OCc3ccccc3)c(OCc3ccccc3)c2)SC1=S (stereo unspecified)
9,1.4,O=C1NC(=S)S/C1=C/c1cc(OCc2ccccc2)cc(OCc2ccccc2)c1
10,11.6,COc1ccc(COc2ccc(/C=C3/SC(=S)NC3=O)cc2OC)cc1
11,3.5,COc1cc(/C=C2/SC(=S)NC2=O)ccc1OCc1ccc(Cl)cc1
12,> 22,COc1cc(/C=C2/SC(=S)NC2=O)ccc1OCc1ccccc1
13,> 67,O=C1/C(=C\c2ccc(OCc3ccccc3)c(OCc3ccccc3)c2)SC(=S)N1Cc1ccccc1
14,> 67,O=C1/C(=C\c2ccc(OCc3ccccc3)c(OCc3ccccc3)c2)SC(=S)N1CCc1ccccc1
15,1.3,O=C(O)[C@@H](Cc1ccccc1)N1C(=O)/C(=C\c2ccc(OCc3ccccc3)c(OCc3ccccc3)c2)SC1=S
16,20.1,O=C1NC(=S)S/C1=C/c1cccc(OCc2ccccc2)c1
